Type in all cases: cell-based
Test [1] concerns MDA-MB-231 (breast cancer). Description: Antiproliferative activity (CCK-8 cell viability), MDA-MB-231. The note with it: Homo sapiens, 72 h, read-out: Antiproliferative activity in cancerous cells, MDA-MB-231 (inhibition of cell growth); for inhibition at 3.3 µM: Compound concentration: 3.3 μM; for inhibition at 10 µM: Compound concentration: 10 μM. Summed up: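 MDA-MB-231 breast cancer cells, grown in DMEM with 10% FBS, were plated in 96-well plates at 2,000-5,000 cells/well. Once attached, they were exposed to compound and incubated at 37° C. for 72 h. Viability was then measured with CCK-8 (10 μL per well, 4 h at 37° C.) by absorbance at 450 nm, relative to DMSO vehicle wells.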

The subject of test [2] is A431 (epidermoid carcinoma). Description: Antiproliferative activity (CCK-8 cell viability), A431. The settings on record: Homo sapiens, 72 h; for inhibition at 3.3 µM: A-431, Compound concentration: 3.3 μM; for inhibition at 10 µM: A-431, Compound concentration: 10 μM; for inhibition at 30 µM: A-431, Compound concentration: 30 μM. Summed up:
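A431 epidermoid carcinoma cells grown in DMEM with 10% FBS were plated at 2,000-5,000 cells/well in 96-well plates. After attachment they were exposed to compound at 3.3 μM, 10 μM, or 30 μM for 72 h at 37° C. Viability was then assessed by CCK-8 against DMSO vehicle-treated wells.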

In test [3] the test system is alpha-smooth muscle actin (α-SMA). Briefly: Inhibition of TGF-β induced expression of alpha-smooth muscle actin (α-SMA) in CFSC cells (western blot). The note with it: compound at 10 μM, TGF-β (10 ng/mL), 24 hours, band intensity vs TGF-β only. Summed up:
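Values are percent reduction of α-SMA band intensity relative to cells given TGF-β alone, quantified by Western blot densitometry with β-actin probed. Compound was applied at 10 μM alongside 10 ng/mL TGF-β to serum-free CFSC cultures for 24 h at 37 °C.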
(In general: Immunoblotting shows a protein as a band on a membrane.)

In test [4] the test system is A549 (lung adenocarcinoma). Briefly: Antiproliferative activity (CCK-8 cell viability), A549. The settings on record: Homo sapiens, 72 h; for inhibition at 3.3 µM: Compound concentration: 3.3 μM; for inhibition at 10 µM: Compound concentration: 10 μM; for inhibition at 30 µM: Compound concentration: 30 μM. Summed up:
(§1)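 Cells grown in DMEM (HepG2, SW480), MEM (HeLa) or F-12K (A549), each with 10% FBS, then exposed to compound at 3.3, 10 or 30 μM for 72 h at 37 °C. CCK-8 absorbance at 450 nm; viability expressed as percent of DMSO-treated cells, graded as growth inhibition bands.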

A further test deals with SW480 (colon cancer). Briefly: Antiproliferative activity (CCK-8 cell viability), SW480. The settings on record: Homo sapiens, 72 h, read-out: Antiproliferative activity in cancerous cells, SW480 (inhibition of cell growth); for inhibition at 3.3 µM: Compound concentration: 3.3 μM; for inhibition at 10 µM: Compound concentration: 10 μM. Summed up: as §1
A further test deals with HeLa (cervical cancer). Briefly: Antiproliferative activity (CCK-8 cell viability), HeLa. The settings on record: Homo sapiens, 72 h; for inhibition at 3.3 µM: Compound concentration: 3.3 μM; for inhibition at 10 µM: Compound concentration: 10 μM; for inhibition at 30 µM: Compound concentration: 30 μM. Summed up: as §1
For the next test, the system named is HepG2 (liver cancer). Description: Antiproliferative activity (CCK-8 cell viability), HepG2. The note with it: Homo sapiens, 72 h; for inhibition at 3.3 µM: Compound concentration: 3.3 μM; for inhibition at 10 µM: Compound concentration: 10 μM; for inhibition at 30 µM: Compound concentration: 30 μM. Summed up: as §1
Test [5] relates to B16F10 (malignant melanoma). Briefly: Antiproliferative activity (CCK-8 cell viability), B16F10. The settings on record: Mus musculus, 72 h; for inhibition at 3.3 µM: B16-F10, Compound concentration: 3.3 μM; for inhibition at 10 µM: B16-F10, Compound concentration: 10 μM; for inhibition at 30 µM: B16-F10, Compound concentration: 30 μM. Summed up: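 B16F10 melanoma cells grown in DMEM with 10% FBS were plated in 96-well plates at 2,000-5,000 cells/well. After attachment they were exposed to compound in medium for 72 h at 37° C. CCK-8 solution (10 μL) was then added, and after 4 h at 37° C absorbance was read at 450 nm.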

Setting [6] is: read-out: Antiproliferative activity in cancerous cells, A431 (inhibition of cell growth).
[7] abbreviates: read-out: Antiproliferative activity in cancerous cells, A549 (inhibition of cell growth).
Where [8] appears, read: read-out: Antiproliferative activity in cancerous cells, HELA (inhibition of cell growth).
Setting [9] is: read-out: Antiproliferative activity in cancerous cells, HepG2 (inhibition of cell growth).
Setting [10] is: read-out: Antiproliferative activity in cancerous cells, B16F10 (inhibition of cell growth).
Setting [11] is: read-out: Antiproliferative activity in cancerous cells, A549.
Where [12] appears, read: read-out: Antiproliferative activity in cancerous cells, HELA.

Molecules are shown by their SMILES. Read-outs that look alike come from different tables or passages of the source.

For the compound `COc1ccc2c(c1)/C(=C\c1cccc(COc3ccc(F)cc3)c1)C(C)=C2CC(=O)O` [B22, (Z)-2-(1-(3-((4-Fluorophenoxy)methyl)benzylidene)-6-methoxy-2-methyl-1H-inden-3-yl)acetic acid], the inhibition at 3.3 µM in test [1] was 30 to 50%; in test [2] (setting [6]) it was under 30%; in test [4] (setting [7]), under 30%; with SW480 (colon cancer), under 30%; with HeLa (cervical cancer) (setting [8]) it was under 30%; in the test on HepG2 (liver cancer) (setting [9]), under 30%. Moreover, the inhibition at 3.3 µM in test [5] (setting [10]) was under 30%. Moreover, the inhibition at 10 µM is 30 to 50% in test [1]; under 30% in test [2] (setting [6]); over 80% in test [3]; under 30% in test [4] (setting [7]); under 30% in the test with SW480 (colon cancer); 30 to 50% in the test with HeLa (cervical cancer) (setting [8]). The inhibition at 10 µM (in the test with HepG2 (liver cancer) (setting [9]); in test [5] (setting [10])) was under 30% in each case.

For the compound `CCC1=C(CC(=O)O)c2cc(F)ccc2/C1=C\c1cccc(Oc2ccccc2)c1` [C19, (Z)-2-(2-Ethyl-5-fluoro-1-(3-phenoxybenzylidene)-1H-inden-3-yl)acetic acid], the inhibition at 3.3 µM in test [1] is at least 50%; in test [2] (setting [6]), under 30%; in test [4] (setting [7]), 30 to 50%; with SW480 (colon cancer), under 30%; with HeLa (cervical cancer) (setting [8]), 30 to 50%; in the test with HepG2 (liver cancer) (setting [9]) it was under 30%. Besides, the inhibition at 3.3 µM in test [5] (setting [10]) is under 30%. Also, the inhibition at 10 µM was at least 50% in test [1]; at least 50% in test [2] (setting [6]); over 80% in test [3]; at least 50% in test [4] (setting [7]); under 30% with SW480 (colon cancer); at least 50% with HeLa (cervical cancer) (setting [8]). Further, the inhibition at 10 µM in the test with HepG2 (liver cancer) (setting [9]) was 30 to 50%; in test [5] (setting [10]), at least 50%.

As to `CC1=C(CC(=O)O)c2ccc(F)cc2/C1=C\c1ccc(COc2ccccc2)cc1` [B1, (Z)-2-(6-Fluoro-2-methyl-1-(4-(phenoxymethyl)benzylidene)-1H-inden-3-yl)-acetic acid], the inhibition at 3.3 µM in test [1] is under 30%; in test [2] (setting [6]) it was 30 to 50%; in test [4] (setting [7]), under 30%; in the test with SW480 (colon cancer) it was at least 50%; in the test on HeLa (cervical cancer) (setting [8]) it was under 30%; in the test on HepG2 (liver cancer) (setting [9]), under 30%. In addition, the inhibition at 3.3 µM in test [5] (setting [10]) is at least 50%. The inhibition at 10 µM in test [1] is at least 50%; in test [2] (setting [6]) it was 30 to 50%; in test [3], under 30%; in test [4] (setting [7]), under 30%; in the test with SW480 (colon cancer) it was at least 50%; in the test with HeLa (cervical cancer) (setting [8]) it was under 30%. The inhibition at 10 µM (in the test with HepG2 (liver cancer) (setting [9]); in test [5] (setting [10])) was at least 50% in each case. In addition, the inhibition at 30 µM (in test [4] (setting [11]); with HeLa (cervical cancer) (setting [12])) was 30 to 50% each time.

As for `O=C(O)CC1=C(Cc2ccc(C(F)(F)F)cc2)/C(=C/c2cccc(Oc3ccccc3)c2)c2ccc(F)cc21` [C13, (Z)-2-(5-Fluoro-1-(3-phenoxybenzylidene)-2-(4-(trifluoromethyl)benzyl)-1H-inden-3-yl)acetic acid], the inhibition at 3.3 µM (in test [1]; in test [2] (setting [6]); in test [4] (setting [7]); in the test on SW480 (colon cancer); in the test with HeLa (cervical cancer) (setting [8]); in the test on HepG2 (liver cancer) (setting [9])) was at least 50% throughout. Further, the inhibition at 3.3 µM in test [5] (setting [10]) is at least 50%. In addition, the inhibition at 10 µM was at least 50% in test [1]; at least 50% in test [2] (setting [6]); over 80% in test [3]; at least 50% in test [4] (setting [7]); at least 50% in the test on SW480 (colon cancer); at least 50% in the test with HeLa (cervical cancer) (setting [8]). The inhibition at 10 µM (in the test with HepG2 (liver cancer) (setting [9]); in test [5] (setting [10])) was at least 50% throughout.

With `CC1=C(CC(=O)NCCN2CCOCC2)c2cc(F)ccc2/C1=C\c1ccc(Oc2ccc(F)cc2)cc1` [C39, (Z)-2-(5-Fluoro-1-(4-(4-fluorophenoxy)benzylidene)-2-methyl-1H-inden-3-yl)-N-(2-morpholinoethyl)acetamide], the inhibition at 3.3 µM (in test [1]; in test [2] (setting [6]); in test [4] (setting [7]); in the test on SW480 (colon cancer); in the test with HeLa (cervical cancer) (setting [8]); in the test with HepG2 (liver cancer) (setting [9])) was under 30% in each case. In test [5] (setting [10]), the inhibition at 3.3 µM was under 30%. Also, the inhibition at 10 µM in test [1] was under 30%; in test [2] (setting [6]), under 30%; in test [3], 50 to 80%; in test [4] (setting [7]) it was 30 to 50%; in the test on SW480 (colon cancer), under 30%; in the test with HeLa (cervical cancer) (setting [8]) it was under 30%. The inhibition at 10 µM (with HepG2 (liver cancer) (setting [9]); in test [5] (setting [10])) was under 30% each time. Further, the inhibition at 30 µM is under 30% in test [2] (read-out: Antiproliferative activity in cancerous cells, A431); 30 to 50% in test [4] (setting [11]); under 30% with HeLa (cervical cancer) (setting [12]); under 30% in the test with HepG2 (liver cancer) (read-out: Antiproliferative activity in cancerous cells, HepG2); under 30% in test [5] (read-out: Antiproliferative activity in cancerous cells, B16F10).

On to `CC1=C(CC(=O)O)c2c(F)cc(F)cc2/C1=C\c1ccc(C(C)C)cc1` [D8, (Z)-2-(4,6-Difluoro-1-(4-isopropylbenzylidene)-2-methyl-1H-inden-3-yl)acetic acid], for which the inhibition at 3.3 µM in test [1] is 30 to 50%; in test [2] (setting [6]) it was under 30%; in test [4] (setting [7]), under 30%; with SW480 (colon cancer) it was under 30%; in the test with HeLa (cervical cancer) (setting [8]), at least 50%; in the test with HepG2 (liver cancer) (setting [9]), under 30%. Further, in test [5] (setting [10]), the inhibition at 3.3 µM was under 30%. Also, the inhibition at 10 µM in test [1] was at least 50%; in test [2] (setting [6]) it was under 30%; in test [3] it was 50 to 80%; in test [4] (setting [7]), 30 to 50%; in the test on SW480 (colon cancer), under 30%; in the test on HeLa (cervical cancer) (setting [8]), at least 50%. Also, the figures for the inhibition at 10 µM (in the test with HepG2 (liver cancer) (setting [9]); in test [5] (setting [10])) were under 30% and at least 50%, respectively. Besides, the inhibition at 30 µM (in test [1] (Compound concentration: 30 μM); in test [2] (setting [6]); in test [4] (setting [7]); in the test with SW480 (colon cancer) (Compound concentration: 30 μM); with HeLa (cervical cancer) (setting [8]); with HepG2 (liver cancer) (setting [9])) was at least 50% throughout. Further, in test [5] (setting [10]), the inhibition at 30 µM is at least 50%.

These data come from patent US20260184663A1, “INDENE COMPOUNDS, PHARMACEUTICAL COMPOSITIONS THEREOF, AND THEIR THERAPEUTIC APPLICATIONS” (NucMito Pharmaceuticals co. Ltd., priority 2022, published 2026).
